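Step 1: Grow cells in 96-well plates. Step 2: Expose to compound for 48 hours at 5 concentrations. Step 3: Interpolate endpoints linearly; if unreached, use highest concentration. TGI is the concentration that stops growth completely.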
Tests used:
Test in all cases: inhibition of tumour cell growth, NCI panel, 48 h
SNB-19 CNS = tested on: SNB-19 CNS
RXF 393 renal = tested on: RXF 393 renal
SK-MEL-28 melanoma = tested on: SK-MEL-28 melanoma
IGROV1 ovarian = tested on: IGROV1 ovarian
HCT-15 colon = tested on: HCT-15 colon
HOP-92 NSCLC = tested on: HOP-92 NSCLC
HCC-2998 colon = tested on: HCC-2998 colon
BT-549 breast = tested on: BT-549 breast
DU-145 prostate = tested on: DU-145 prostate
TK-10 renal = tested on: TK-10 renal
RPMI-8226 leukemia = tested on: RPMI-8226 leukemia
U251 CNS = tested on: U251 CNS
HL-60(TB) leukemia = tested on: HL-60(TB) leukemia
A549 NSCLC = tested on: A549 NSCLC
OVCAR-8 ovarian = tested on: OVCAR-8 ovarian
UACC-62 melanoma = tested on: UACC-62 melanoma
EKVX NSCLC = tested on: EKVX NSCLC
786-0 renal = tested on: 786-0 renal
NCI-H522 lung = tested on: NCI-H522 lung
T-47D breast = tested on: T-47D breast
OVCAR-3 ovarian = tested on: OVCAR-3 ovarian
HOP-62 NSCLC = tested on: HOP-62 NSCLC
MOLT-4 leukemia = tested on: MOLT-4 leukemia
SK-MEL-5 melanoma = tested on: SK-MEL-5 melanoma
SF-539 CNS = tested on: SF-539 CNS
SK-OV-3 ovarian = tested on: SK-OV-3 ovarian
SW-620 colon = tested on: SW-620 colon
HCT-116 colon = tested on: HCT-116 colon
COLO 205 colon = tested on: COLO 205 colon
MALME-3M melanoma = tested on: MALME-3M melanoma
SR leukemia = tested on: SR leukemia
NCI-H226 lung = tested on: NCI-H226 lung
NCI-H23 lung = tested on: NCI-H23 lung
CAKI-1 renal = tested on: CAKI-1 renal
CCRF-CEM leukemia = tested on: CCRF-CEM leukemia
NCI/ADR-RES ovarian = tested on: NCI/ADR-RES ovarian
M14 melanoma = tested on: M14 melanoma
ACHN renal = tested on: ACHN renal
OVCAR-5 ovarian = tested on: OVCAR-5 ovarian
MDA-MB-435 = tested on: MDA-MB-435
LOX IMVI melanoma = tested on: LOX IMVI melanoma
UO-31 renal = tested on: UO-31 renal
SN12C renal = tested on: SN12C renal
PC-3 prostate = tested on: PC-3 prostate
SF-268 CNS = tested on: SF-268 CNS
HS 578T breast = tested on: HS 578T breast
SF-295 CNS = tested on: SF-295 CNS
KM12 colon = tested on: KM12 colon
MDA-N = tested on: MDA-N
MDA-MB-231 breast = tested on: MDA-MB-231 breast
SNB-75 CNS = tested on: SNB-75 CNS
MCF7 breast = tested on: MCF7 breast
HT29 colon = tested on: HT29 colon
SK-MEL-2 melanoma = tested on: SK-MEL-2 melanoma
OVCAR-4 ovarian = tested on: OVCAR-4 ovarian
UACC-257 melanoma = tested on: UACC-257 melanoma
K-562 leukemia = tested on: K-562 leukemia

Measured: TGI

CC1(c2nc3ccccc3[nH]2)CCC(C(=O)O)C(C)(C)O1 (configuration not stated)
> 100 µM: all assays above

— PubChem BioAssay (NCI)
